Data on 10 compounds can be found in patent US4156724A, “N-acylamino-alpha-arylacetamido cephalosporins and antibacterial compositions and methods containing them” (Sumitomo Chemical Company, Limited, priority 1974, dated 1979).

≈ marks a conversion by molar mass, not a printed value.

Format in all cases: cell-based
The test system of experiment [1] is Staphylococcus aureus 209 P. As to the kind of experiment: Minimum Inhibitory Concentration, Staphylococcus aureus 209 P. The following applies: Staphylococcus aureus 209 P; read-out: Minimum Inhibitory Concentration. On the procedure: (§1) anti-microbial activity tests were carried out on the compounds obtained in the Examples.
For experiment [2], the system named is Staphylococcus aureus FS 289. As to the kind of experiment: Minimum Inhibitory Concentration, Staphylococcus aureus FS 289. The note with it: FS289; Staphylococcus aureus FS 289, strain resistant to penicillin; read-out: Minimum Inhibitory Concentration. On the procedure:
as §1
*Staphylococcus aureus FS 289: strain resistant to penicillin

The next experiment concerns Escherichia coli NIHJ. The experiment is described as follows: Minimum Inhibitory Concentration, Escherichia coli NIHJ. The note with it: Escherichia coli NIHJ; read-out: Minimum Inhibitory Concentration. On the procedure:
as §1

Experiment [3] concerns Klebsiella pneumoniae 602. As to the kind of experiment: Minimum Inhibitory Concentration, Klebsiella pneumoniae 602. The note with it: Klebsiella pneumoniae, 602, Klebsiella pneumoniae 602; read-out: Minimum Inhibitory Concentration. On the procedure:
as §1

Another experiment deals with Proteus vulgaris HX 19. The experiment is described as follows: Minimum Inhibitory Concentration, Proteus vulgaris HX 19. The following applies: HX19; Proteus vulgaris HX 19; read-out: Minimum Inhibitory Concentration. On the procedure: as §1
The test system of experiment [4] is Pseudomonas aeruginosa 104. The experiment is described as follows: Minimum Inhibitory Concentration, Pseudomonas aeruginosa 104. The note with it: Pseudomonas aeruginosa 104; read-out: Minimum Inhibitory Concentration. How it is done:
as §1

The test system of the next experiment is Serratia No. 72. As to the kind of experiment: Minimum Inhibitory Concentration, Serratia No. 72. How it is done: as §1
Experiment [5] has as its system Enterobacter aerogeneus No. 75. The experiment is described as follows: Minimum Inhibitory Concentration, Enterobacter aerogeneus No. 75. The note with it: Enterobacter aerogeneus No. 75; read-out: Minimum Inhibitory Concentration. On the procedure: as §1

With `COc1cc(C(NC(=O)c2cnc3cccnc3c2O)C(=O)NC2C(=O)N3C(C(=O)O)=C(CSc4nnc(CO)s4)CSC23)ccc1O` (centres unmarked) [Example 157], the MIC stood at 1.56 µg/mL (≈ 2.19 µM) in experiment [1]; 12.5 µg/mL (≈ 17.6 µM) in experiment [2]; 3.13 µg/mL (≈ 4.4 µM) in the experiment on Escherichia coli NIHJ; 3.13 µg/mL (≈ 4.4 µM) in experiment [3]; 0.2 µg/mL (≈ 0.281 µM) in the experiment on Proteus vulgaris HX 19; 6.25 µg/mL (≈ 8.78 µM) in experiment [4]. Further, the values for the MIC (against Serratia No. 72; in experiment [5]) were 25 µg/mL (≈ 35.1 µM) and 6.25 µg/mL (≈ 8.78 µM), respectively.

`Cn1nnnc1SCC1=C(C(=O)O)N2C(=O)C(NC(=O)C(NC(=O)c3cnc4scnc4c3O)c3ccc(O)cc3)C2SC1` (centres unmarked) [Example 158]: the MIC is 0.39 µg/mL (≈ 0.595 µM) in experiment [1]; 12.5 µg/mL (≈ 19.1 µM) in experiment [2]; 6.25 µg/mL (≈ 9.53 µM) in the experiment with Escherichia coli NIHJ; 1.56 µg/mL (≈ 2.38 µM) in experiment [3]; 0.39 µg/mL (≈ 0.595 µM) in the experiment on Proteus vulgaris HX 19; 6.25 µg/mL (≈ 9.53 µM) in experiment [4]. Further, the MIC in the experiment on Serratia No. 72 amounted to 25 µg/mL (≈ 38.1 µM); in experiment [5], 12.5 µg/mL (≈ 19.1 µM).

Take `Cn1nnnc1SCC1=C(C(=O)O)N2C(=O)C(NC(=O)C(NC(=O)c3cnc4sccc4c3O)c3ccc(O)cc3)C2SC1` (centres unmarked) [Example 159]: the MIC in experiment [1] stood at 0.39 µg/mL (≈ 0.596 µM); in experiment [2], 12.5 µg/mL (≈ 19.1 µM); in the experiment on Escherichia coli NIHJ, 6.25 µg/mL (≈ 9.55 µM); in experiment [3], 3.13 µg/mL (≈ 4.78 µM); in the experiment with Proteus vulgaris HX 19, 0.78 µg/mL (≈ 1.19 µM); in experiment [4], 6.25 µg/mL (≈ 9.55 µM). Also, the results for the MIC (in the experiment on Serratia No. 72; in experiment [5]) were 50 µg/mL (≈ 76.4 µM) and 12.5 µg/mL (≈ 19.1 µM), respectively.

`CSc1nc(O)c2c(O)c(C(=O)NC(C(=O)NC3C(=O)N4C(C(=O)O)=C(CSc5nnnn5C)CSC34)c3ccc(O)cc3)cnc2n1` (centres unmarked) [Example 160]: the MIC in experiment [1] turned out to be 0.78 µg/mL (≈ 1.09 µM); in experiment [2], 12.5 µg/mL (≈ 17.5 µM); in the experiment with Escherichia coli NIHJ, 12.5 µg/mL (≈ 17.5 µM); in experiment [3] it was 6.25 µg/mL (≈ 8.77 µM); in the experiment with Proteus vulgaris HX 19, 1.56 µg/mL (≈ 2.19 µM); in experiment [4], 12.5 µg/mL (≈ 17.5 µM). In addition, the MIC was 50 µg/mL (≈ 70.2 µM) in the experiment on Serratia No. 72 and 12.5 µg/mL (≈ 17.5 µM) in experiment [5].

For the compound `Cc1cc(C(NC(=O)c2cnc3cccnc3c2O)C(=O)NC2C(=O)N3C(C(=O)O)=C(CSc4ccc(O)nn4)CSC23)ccc1O` (centres unmarked) [Example 161], the MIC in experiment [1] is 0.78 µg/mL (≈ 1.15 µM); in experiment [2], 12.5 µg/mL (≈ 18.5 µM); in the experiment with Escherichia coli NIHJ it was 6.25 µg/mL (≈ 9.25 µM); in experiment [3], 3.13 µg/mL (≈ 4.63 µM); in the experiment on Proteus vulgaris HX 19, 0.39 µg/mL (≈ 0.577 µM); in experiment [4] it was 6.25 µg/mL (≈ 9.25 µM). In addition, the MIC against Serratia No. 72 is 50 µg/mL (≈ 74 µM); in experiment [5] it was 12.5 µg/mL (≈ 18.5 µM).

On to `CSc1ncc2c(O)c(C(=O)NC(C(=O)NC3C(=O)N4C(C(=O)O)=C(CSc5nnnn5C)CSC34)c3cccc(O)c3)cnc2n1` (centres unmarked) [Example 162], for which the MIC came out at 1.56 µg/mL (≈ 2.24 µM) in experiment [1]; 12.5 µg/mL (≈ 17.9 µM) in experiment [2]; 12.5 µg/mL (≈ 17.9 µM) in the experiment on Escherichia coli NIHJ; 6.25 µg/mL (≈ 8.97 µM) in experiment [3]; 0.78 µg/mL (≈ 1.12 µM) in the experiment on Proteus vulgaris HX 19; 6.25 µg/mL (≈ 8.97 µM) in experiment [4]. Further, the MIC against Serratia No. 72 is 50 µg/mL (≈ 71.8 µM); in experiment [5], 25 µg/mL (≈ 35.9 µM).

Consider `Cn1nnnc1SCC1=C(C(=O)O)N2C(=O)C(NC(=O)C(NC(=O)c3cnc4nc(N5CCNCC5)ncc4c3O)c3ccc(O)cc3)C2SC1` (centres unmarked) [Example 163], for which the MIC in experiment [1] was 1.56 µg/mL (≈ 2.12 µM); in experiment [2], 12.5 µg/mL (≈ 17 µM); in the experiment on Escherichia coli NIHJ it was 12.5 µg/mL (≈ 17 µM); in experiment [3], 6.25 µg/mL (≈ 8.51 µM); in the experiment on Proteus vulgaris HX 19, 0.39 µg/mL (≈ 0.531 µM); in experiment [4], 6.25 µg/mL (≈ 8.51 µM). Besides, the MIC against Serratia No. 72 came to 50 µg/mL (≈ 68 µM); in experiment [5] it was 25 µg/mL (≈ 34 µM).

Regarding `COc1ccc2ncc(C(=O)NC(C(=O)NC3C(=O)N4C(C(=O)O)=C(CSc5nnnn5C)CSC34)c3cccc(O)c3)c(O)c2n1` (centres unmarked) [Example 164], the MIC in experiment [1] was determined as 0.78 µg/mL (≈ 1.15 µM); in experiment [2], 6.25 µg/mL (≈ 9.2 µM); in the experiment on Escherichia coli NIHJ, 3.13 µg/mL (≈ 4.6 µM); in experiment [3] it was 1.56 µg/mL (≈ 2.3 µM); with Proteus vulgaris HX 19 it was 0.2 µg/mL (≈ 0.294 µM); in experiment [4], 3.13 µg/mL (≈ 4.6 µM). Further, the results for the MIC (against Serratia No. 72; in experiment [5]) were 12.5 µg/mL (≈ 18.4 µM) and 3.13 µg/mL (≈ 4.6 µM), respectively.

As to `COc1ccc2ncc(C(=O)NC(C(=O)NC3C(=O)N4C(C(=O)O)=C(CSc5nnc(CO)s5)CSC34)c3ccc(O)cc3)c(O)c2n1` (centres unmarked) [Example 165], the MIC in experiment [1] stood at 0.78 µg/mL (≈ 1.1 µM); in experiment [2] it was 6.25 µg/mL (≈ 8.78 µM); in the experiment with Escherichia coli NIHJ, 3.13 µg/mL (≈ 4.4 µM); in experiment [3], 3.13 µg/mL (≈ 4.4 µM); in the experiment on Proteus vulgaris HX 19, 0.2 µg/mL (≈ 0.281 µM); in experiment [4], 3.13 µg/mL (≈ 4.4 µM). The MIC in the experiment on Serratia No. 72 stood at 12.5 µg/mL (≈ 17.6 µM); in experiment [5], 6.25 µg/mL (≈ 8.78 µM).

Turning to `CN(C)c1ccc2ncc(C(=O)NC(C(=O)NC3C(=O)N4C(C(=O)O)=C(CSc5nnnn5C)CSC34)c3ccc(O)cc3)c(O)c2n1` (centres unmarked) [Example 166], the MIC in experiment [1] turned out to be 0.78 µg/mL (≈ 1.13 µM); in experiment [2], 6.25 µg/mL (≈ 9.02 µM); in the experiment on Escherichia coli NIHJ it was 3.13 µg/mL (≈ 4.52 µM); in experiment [3], 1.56 µg/mL (≈ 2.25 µM); with Proteus vulgaris HX 19 it was 0.2 µg/mL (≈ 0.289 µM); in experiment [4], 3.13 µg/mL (≈ 4.52 µM). For the same compound, the MIC against Serratia No. 72 is 12.5 µg/mL (≈ 18 µM); in experiment [5], 3.13 µg/mL (≈ 4.52 µM).
